# From ChEMBL document CHEMBL1201862, “PubChem BioAssay data set” (2004)
#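 The compound was tested at five concentrations on cells cultured in 96-well plates, with a 48-hour exposure period. GI50: concentration for 50% inhibition of growth.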 Active and inactive are the calls of the source. Rule as the data show it: active = GI50 up to about 1.1 µM and inactive = higher.
# Columns and labels:
# Assay in all cases: NCI-60 cell line screen, 48 h
# TK-10 = test system: TK-10
# RXF 393 = test system: RXF 393
# SF-539 = test system: SF-539
# CCRF-CEM = test system: CCRF-CEM
# LOX IMVI = test system: LOX IMVI
# SK-MEL-2 = test system: SK-MEL-2
# NCI-H23 = test system: NCI-H23
# UACC-62 = test system: UACC-62
# NCI/ADR-RES = test system: NCI/ADR-RES
# ACHN = test system: ACHN
# OVCAR-8 = test system: OVCAR-8
# COLO 205 = test system: COLO 205
# SK-MEL-5 = test system: SK-MEL-5
# HL-60 = test system: HL-60
# K562 = test system: K562
# UACC-257 = test system: UACC-257
# M14 = test system: M14
# SW-620 = test system: SW-620
# A498 = test system: A498
# HT-29 = test system: HT-29
SMILES,GI50 (TK-10),GI50 (RXF 393),GI50 (SF-539),GI50 (CCRF-CEM),GI50 (LOX IMVI),GI50 (SK-MEL-2),GI50 (NCI-H23),GI50 (UACC-62),GI50 (NCI/ADR-RES),GI50 (ACHN),GI50 (OVCAR-8),GI50 (COLO 205),GI50 (SK-MEL-5),GI50 (HL-60),GI50 (K562),GI50 (UACC-257),GI50 (M14),GI50 (SW-620),GI50 (A498),GI50 (HT-29)
Nc1ccc(-c2nc3ccccc3s2)cc1,24.5 µM (inactive),17.8 µM (inactive),23 µM (inactive),14.6 µM (inactive),16.8 µM (inactive),25.3 µM (inactive),18.8 µM (inactive),18.4 µM (inactive),22.6 µM (inactive),15.7 µM (inactive),12.8 µM (inactive),23.8 µM (inactive),21.6 µM (inactive),24.9 µM (inactive),21.9 µM (inactive),22 µM (inactive),18.6 µM (inactive),20 µM (inactive),29.7 µM (inactive),19.4 µM (inactive)
COc1ccc(C[C@@H]2OC3(C=CC(=O)CC3Sc3ccccc3)O[C@H]2Cc2ccc(OC)cc2)cc1 (stereo not given in full),1.67 µM (inactive),0.107 µM (active),1.64 µM (inactive),0.216 µM (active),0.458 µM (active),1.53 µM (inactive),1.71 µM (inactive),2.15 µM (inactive),1.48 µM (inactive),1.36 µM (inactive),0.29 µM (active),1.85 µM (inactive),1.37 µM (inactive),1.12 µM (active),1.9 µM (inactive),1.47 µM (inactive),1.16 µM (inactive),0.303 µM (active),4.08 µM (inactive),1.79 µM (inactive)
[O-]/[N+](=N/c1ncc(-c2ccccc2)cn1)c1ncc(-c2ccccc2)cn1,> 100 µM (inactive),60.5 µM (inactive),> 65.2 µM (inactive),34.4 µM (inactive),43.4 µM (inactive),> 100 µM (inactive),> 100 µM (inactive),> 100 µM (inactive),62.1 µM (inactive),> 100 µM (inactive),> 96.6 µM (inactive),> 100 µM (inactive),42.7 µM (inactive),39.1 µM (inactive),52.8 µM (inactive),> 100 µM (inactive),> 100 µM (inactive),> 95.7 µM (inactive),> 100 µM (inactive),> 78 µM (inactive)
Cc1nc2cc(/N=N/c3c(C)noc3C)ccc2[nH]1,22.9 µM (inactive),16.3 µM (inactive),17.6 µM (inactive),25.2 µM (inactive),16.6 µM (inactive),34.8 µM (inactive),35.3 µM (inactive),27 µM (inactive),28.1 µM (inactive),25.1 µM (inactive),24.5 µM (inactive),15.1 µM (inactive),12.4 µM (inactive),13.1 µM (inactive),35.6 µM (inactive),44.1 µM (inactive),26.5 µM (inactive),24.8 µM (inactive),11.1 µM (inactive),17.7 µM (inactive)
CC(C)(C)c1nc2c(o1)/C(=N\c1ccc(F)cc1)c1ccccc1C2=O,35.7 µM (inactive),9.79 µM (inactive),4.6 µM (inactive),> 100 µM (inactive),2.56 µM (inactive),2.67 µM (inactive),2.26 µM (inactive),2.55 µM (inactive),6.73 µM (inactive),4.85 µM (inactive),7.21 µM (inactive),15.7 µM (inactive),1.7 µM (inactive),> 28.6 µM (inactive),4.1 µM (inactive),2.36 µM (inactive),2.96 µM (inactive),4.27 µM (inactive),27.4 µM (inactive),17.6 µM (inactive)
CCc1nc(N)c2nc(-c3ccc(C#N)cc3)oc2n1,> 100 µM (inactive),> 100 µM (inactive),> 100 µM (inactive),> 100 µM (inactive),> 100 µM (inactive),> 100 µM (inactive),> 100 µM (inactive),> 100 µM (inactive),> 100 µM (inactive),> 100 µM (inactive),> 100 µM (inactive),> 100 µM (inactive),> 100 µM (inactive),> 10 µM (inactive),> 100 µM (inactive),> 100 µM (inactive),> 100 µM (inactive),> 100 µM (inactive),> 100 µM (inactive),> 100 µM (inactive)
CC[C@@H]1CC[C@@H]2[C@H](CC[C@]3(C)[C@@H](OC(C)=O)CC[C@@H]23)[C@H]1COC(C)=O,> 100 µM (inactive),22.6 µM (inactive),24.4 µM (inactive),20 µM (inactive),17.4 µM (inactive),16.4 µM (inactive),27.2 µM (inactive),18.1 µM (inactive),26.7 µM (inactive),53.8 µM (inactive),23 µM (inactive),19.1 µM (inactive),18.3 µM (inactive),20.7 µM (inactive),17.6 µM (inactive),29.5 µM (inactive),25.4 µM (inactive),31.8 µM (inactive),26 µM (inactive),18.2 µM (inactive)
CC1=C(C#N)c2nc3ccccc3n2C(=O)C1(C)CCO (stereo not given),> 100 µM (inactive),> 100 µM (inactive),> 100 µM (inactive),> 100 µM (inactive),> 100 µM (inactive),> 100 µM (inactive),> 100 µM (inactive),> 100 µM (inactive),> 100 µM (inactive),> 100 µM (inactive),> 100 µM (inactive),> 100 µM (inactive),> 100 µM (inactive),> 100 µM (inactive),> 100 µM (inactive),> 100 µM (inactive),> 100 µM (inactive),> 100 µM (inactive),> 100 µM (inactive),> 100 µM (inactive)
